From PMC9995496, “A screen for MeCP2-TBL1 interaction inhibitors using a luminescence-based assay” (Scientific Reports, 2023)
Counter-ions that a name gives are not always drawn. Like-named read-outs stand apart in the source and are kept apart here. Numbered stars: 1 amine (or outer) side, 2 acyl side, 3 side chain; on linkers, the order of the positions; unused ones are H or OH. Bridge positions count the residues as written; N and C are the ends. Square brackets hold non-standard residues; d marks the D form. Peptide text beside a SMILES is read from it. * marks the point of attachment. hTyr(3S-OH,4S-OH,3'-OSO3H) = N[C@H](C(=O)O)[C@H](O)[C@@H](O)c1ccc(O)c(OS(=O)(=O)O)c1; Orn(4R-OH,5R-OH) = O=C([C@H](C[C@@H](O)[C@@H](O)N[*:3])N[*:1])[*:2]; Pro(3S-OH,4S-Me) = C[C@H]1CN[C@H](C(=O)O)[C@H]1O; X1 = CCCCCOc1ccc(-c2cc(-c3ccc(C(=O)*)cc3)no2)cc1; Gln(3R-OH) = NC(=O)C[C@@H](O)[C@H](N)C(=O)O; Hyp = O=C(O)[C@@H]1C[C@@H](O)CN1

Test system: PRKACA-PRKAR2A interaction (SmBiT-PRKACA / LgBiT-PRKAR2A), protein kinase A
Parameters: NanoLuc complementation counter-screen in cell extract, PRKACA with PRKAR2A, loss of luminescence, detects NanoLuc interference
Settings: counter-screen for NanoLuc interference, 0.5 h, 20 µM, inhibitor

Inh (PKA) [%] | Inh (PKA) (Inh (PKA)) [%] | SMILES
11.46 |  | NS(=O)(=O)NCCNc1nonc1C(=Nc1ccc(F)c(Br)c1)NO [UM0141562:01, IDO inhibitor 1]
8.041 |  | NS(=O)(=O)NCCNc1nonc1/C(=N/O)Nc1ccc(F)c(Br)c1 [UM0141562:02, INCB-024360]
3.268 |  | COc1cc2ncnc(Nc3ccc(O)cc3)c2cc1OC [UM0141567:01, JANEX-1]
12.62 |  | Cc1cc(NC(=O)c2cccc(NC(=O)/C=C/CN(C)C)c2)ccc1Nc1nccc(-c2cccnc2)n1 [UM0141569:01, JNK-IN-8]
16.02 |  | COc1ccc(S(=O)(=O)Nc2ccccc2CN(C)C/C=C/c2ccc(Cl)cc2)cc1 [UM0141573:01, KN-92 phosphate]
 | 44.92 | COc1ccc(S(=O)(=O)N(CCO)c2ccccc2CN(C)C/C=C/c2ccc(Cl)cc2)cc1 [UM0141574:01, KN-93]
0.904 |  | CN[C@@H](C)C(=O)N[C@H](C(=O)N1CCC[C@H]1c1nc(C(=O)c2ccc(F)cc2)cs1)C1CCCCC1 [UM0141576:01, LCL161]
40.12 |  | C[C@@H](Oc1ccc2[nH]nc(/C=C/c3cnn(CCO)c3)c2c1)c1c(Cl)cncc1Cl [UM0141583:01, LY2874455]
5.314 |  | COc1c(Cl)cc2c([nH]c3cnccc32)c1NC(=O)c1cccnc1C [UM0141589:01, MLN120B]
3.406 |  | CNC(=O)c1c(-c2ccc(F)cc2)oc2cc(N(CCO)S(C)(=O)=O)c(C3CC3)cc12 [UM0141591:01, Nesbuvir]
80.65 |  | C[C@H](Cc1ccc(O)c(O)c1)[C@@H](C)Cc1ccc(O)c(O)c1 [UM0141592:01, Nordihydroguaiaretic acid]
3.513 |  | COC(=O)[C@H](Cc1cccc(C(=N)N)c1)[C@@H](C)NC(=O)c1ccc(-c2cc[n+]([O-])cc2)cc1 [UM0141597:01, Otamixaban]
 | 0.5825 | Nc1nc2[nH]cc(CCc3ccc(C(=O)N[C@@H](CCC(=O)O)C(=O)O)cc3)c2c(=O)[nH]1 [UM0141598:01, Pemetrexed disodium hemipenta hydrate]
13.11 |  | O=C(CCN1CCN(C(=O)OCc2cc(Cl)cc(Cl)c2)CC1)c1ccc2[nH]c(=O)oc2c1 [UM0141604:01, PF-8380]
22.19 |  | NC(=O)c1cnc(N[C@@H]2CCCC[C@@H]2N)nc1Nc1cccc(-n2nccn2)c1 [UM0141609:01, PRT062607 Hydrochloride]
 | 6.023 | CNC(=O)c1cc(Oc2ccc(NC(=O)Nc3ccc(Cl)c(C(F)(F)F)c3)c(F)c2)ccn1 [UM0141611:01, Regorafenib monohydrate]
 | 5.988 | CNC(=O)c1cc(Oc2ccc(NC(=O)Nc3ccc(Cl)c(C(F)(F)F)c3)c(F)c2)ccn1 [UM0141611:02, Regorafenib]
 | 5.153 | CC(C)Cc1ccc([C@@H](C)C(=O)NS(C)(=O)=O)cc1 [UM0141612:01, Reparixin]
 | 7.24 | CC(C)Cc1ccc([C@@H](C)C(=O)NS(C)(=O)=O)cc1 [UM0141612:02, Reparixin L-lysine salt]
51.62 |  | COc1cc(C(=O)O)ccc1NC(=O)[C@@H]1N[C@@H](CC(C)(C)C)[C@](C#N)(c2ccc(Cl)cc2F)[C@H]1c1cccc(Cl)c1F [UM0141617:01, RG7388]
2.487 |  | COC(=O)N(C)c1c(N)nc(-c2nn(Cc3ccccc3F)c3ncccc23)nc1N [UM0141619:01, Riociguat]
-11 |  | O=C(NCc1cccc(O)c1)Nc1nc(-c2ccncc2)cs1 [UM0141621:01, RKI-1447]

The next lines start with the molecule.

SMILES | Inh (PKA) [%] | Inh (PKA) (Inh (PKA)) [%]
COc1cc(N2CCOCC2)ccc1NC(=O)c1csc(-c2cccnc2)n1 [UM0141564:01, IRAK inhibitor 6] | 6.368 | 
Cc1ccc2nc(NC(=O)CSc3nc4c(c(=O)n3-c3ccccc3)SCC4)sc2c1 [UM0141565:01, IWP-2] | 27.82 | 
C/C(=C\c1csc(C)n1)[C@@H]1C[C@@H]2O[C@]2(C)CCC[C@H](C)[C@H](O)[C@@H](C)C(=O)C(C)(C)[C@@H](O)CC(=O)N1 [UM0141566:01, Ixabepilone] | 1.607 | 
O=C1NCCSc2c1sc1ccc(O)cc21 [UM0141570:01, kb NB 142-70] | 9.964 | 
N=C(N)SCCc1ccc(OCc2ccc([N+](=O)[O-])cc2)cc1 [UM0141571:01, KB-R7943 mesylate] | 7.839 | 
COc1cc(Oc2ccnc3cc(OC)c(OC)cc23)ccc1NC(=O)NC(C)c1nccs1 (centres unmarked) [UM0141572:01, Ki20227] | 11.8 | 
O=C(Cc1ccc(-c2ccc(OCCN3CCOCC3)cc2)cn1)NCc1ccccc1 [UM0141575:01, KX2-391 dihydrochloride] |  | 3.66
c1ccc2c(-c3cnn4cc(-c5ccc(N6CCNCC6)cc5)cnc34)ccnc2c1 [UM0141577:01, LDN193189 Hydrochloride] |  | 9.112
COC(=O)N[C@H](C(=O)N1CC2(CC2)C[C@H]1c1nc(-c2ccc3c(c2)C(F)(F)c2cc(-c4ccc5[nH]c([C@@H]6[C@H]7CC[C@H](C7)N6C(=O)[C@@H](NC(=O)OC)C(C)C)nc5c4)ccc2-3)c[nH]1)C(C)C [UM0141578:01, Ledipasvir] | 1.236 | 
CC1(C)O[C@H]2CC(=O)OC[C@]23[C@H]2CC[C@@]4(C)[C@H](c5ccoc5)OC(=O)[C@H]5O[C@]54[C@]2(C)C(=O)C[C@@H]13 [UM0141579:01, Limonin] | 0.3774 | 
COc1cc(C(=O)N2CCC(N3CCN(C)CC3)CC2)ccc1Nc1ncc2c(n1)N(C)c1ccccc1C(=O)N2C [UM0141580:01, LRRK2-IN-1] | 12.15 | 
O=C1NC(=O)C(c2cnc3ccccn23)=C1c1cn2c3c(cc(F)cc13)CN(C(=O)N1CCCCC1)CC2 [UM0141581:01, LY2090314] | 40.49 | 
Cc1ccc(C(=O)Nc2ccc(Oc3cc4cnn(C)c4cc3-c3cn[nH]c3)c(F)c2)c(=O)n1-c1ccc(F)cc1 [UM0141582:01, LY2801653] | 33.02 | 
O=C1CCC[C@@H]2[C@H]3CCCN4CCC[C@@H](CN12)[C@@H]34 [UM0141584:01, Matrine] | 1.794 | 
CCCCCOc1ccc(-c2cc(-c3ccc(C(=O)N[C@H]4C[C@@H](O)[C@@H](O)NC(=O)[C@@H]5[C@@H](O)[C@@H](C)CN5C(=O)[C@H]([C@H](O)CC(N)=O)NC(=O)[C@H]([C@H](O)[C@@H](O)c5ccc(O)c(OS(=O)(=O)O)c5)NC(=O)[C@@H]5C[C@@H](O)CN5C(=O)[C@H]([C@@H](C)O)NC4=O)cc3)no2)cc1 [UM0141585:01, Micafungin sodium] (X1-[Orn(4R-OH,5R-OH)]T[Hyp][hTyr(3S-OH,4S-OH,3'-OSO3H)][Gln(3R-OH)][Pro(3S-OH,4S-Me)]; lactam 1-C) | 7.755 | 
NC(=O)c1cccc2cn(-c3ccc([C@@H]4CCCNC4)cc3)nc12 [UM0141586:01, MK-4827] | 5.692 | 
C=C[C@@H]1C[C@]1(NC(=O)[C@@H]1C[C@@H]2CN1C(=O)[C@H](C(C)(C)C)NC(=O)O[C@@H]1C[C@H]1CCCCCc1nc3ccc(OC)cc3nc1O2)C(=O)NS(=O)(=O)C1CC1 [UM0141587:01, MK-5172] | 6.735 | 
Cc1c(O)cccc1C(=O)N[C@@H](CSc1ccccc1)[C@H](O)CN1C[C@H]2CCCC[C@H]2C[C@H]1C(=O)NC(C)(C)C [UM0141590:01, Nelfinavir Mesylate] | 3.843 | 
CCOC(=O)C1=C[C@@H](OC(CC)CC)[C@H](NC(C)=O)[C@@H](N)C1 [UM0141595:01, Oseltamivir] |  | 0.436

SMILES | Inh (PKA) [%] | Inh (PKA) (Inh (PKA)) [%]
CCC(CC)O[C@@H]1C=C(C(=O)O)C[C@H](N)[C@H]1NC(C)=O [UM0141596:01, Oseltamivir acid] | 1.334 | 
CCCC(CCC)C(=O)O [UM0141598:02, Valproic acid sodium salt (Sodium valproate)] |  | 0.874
O=C(O)CCCc1ccccc1 [UM0141598:03, Sodium Phenylbutyrate] | 1.56 | 
OC[C@H]1O[C@@H](n2cnc3c2N=CNC[C@H]3O)C[C@@H]1O [UM0141599:01, Pentostatin] | 1.284 | 
CCC(CC)[C@H](NC(C)=O)[C@@H]1[C@H](O)[C@@H](C(=O)O)C[C@H]1NC(=N)N [UM0141600:01, Peramivir] |  | 2.459
Cc1nc(Nc2n[nH]c3c2CN(C(=O)N[C@H](CN(C)C)c2ccccc2)C3(C)C)c2sccc2n1 [UM0141601:01, PF-3758309] | 66.65 | 
Nc1nccc(-c2c(-c3ccc(F)cc3)ncn2C2CCCCC2)n1 [UM0141603:01, PF-670462] | 48.77 | 
O=C1NCCc2[nH]c(-c3ccncc3)cc21 [UM0141605:01, PHA-767491] | 1.427 | 
Oc1cccc(-c2nc(N3CCOCC3)c3oc4ncccc4c3n2)c1 [UM0141606:01, PI-103 Hydrochloride] |  | 17.85
CNC(=O)c1ccccc1Nc1cc(Nc2ccc(N3CCOCC3)cc2OC)ncc1C(F)(F)F [UM0141607:01, PND-1186] | 14.93 | 
CC1=CC(=O)C(C(C)C)=C/C1=N/OC(=O)c1ccccc1C [UM0141608:01, Poloxin] | 31.48 | 
CC(C)OC(=O)[C@H](C)N[P@](=O)(OC[C@H]1O[C@@H](n2ccc(=O)[nH]c2=O)[C@](C)(F)[C@@H]1O)Oc1ccccc1 [UM0141610:01, PSI-7977] | 2.04 | 
Cc1cccc(-c2[nH]ncc2-c2ccc3ncccc3n2)n1 [UM0141613:01, RepSox] | 2.359 | 
c1nc2c(NC3CCCCC3)nc(Nc3ccc(N4CCOCC4)cc3)nc2[nH]1 [UM0141614:01, Reversine] | 32.72 | 
CCOc1cc(C(C)(C)C)ccc1C1=N[C@@](C)(c2ccc(Cl)cc2)[C@@](C)(c2ccc(Cl)cc2)N1C(=O)N1CCN(CCCS(C)(=O)=O)CC1 [UM0141616:01, RG7112] | 18.3 | 
Cc1cc(/C=C/C#N)cc(C)c1Nc1ccnc(Nc2ccc(C#N)cc2)n1 [UM0141618:01, Rilpivirine] | 30.56 | 
CCN(C)C(=O)Oc1cccc([C@H](C)N(C)C)c1 [UM0141620:01, Rivastigmine] |  | 1.357
N#CC[C@H](C1CCCC1)n1cc(-c2ncnc3[nH]ccc23)cn1 [UM0141622:01, Ruxolitinib phosphate] |  | 28.19
